The subject of assay [1] is splenocytes. Kind of assay: NO scavenging activity in Concanavalin A-treated splenocytes (Griess assay). It is filed as cell-based, C57BL/6 mouse. The note with it: Mus musculus, Splenocyte, Concanavalin A 5 µg/mL, 72 hours, read-out: NO Scavenging Activity (%) (Mean±SD). On the procedure: (§1) A spleen was isolated from an 8-week-old C57BL/6 mouse, and splenocytes were isolated using a physical method.
(§2) The separated splenocytes were diluted to a concentration of 5×10^6 cells/mL in a RPMI 1640 medium including 10% FBS, 100 U/mL of penicillin and 100 µg/mL of streptomycin, and the diluted splenocytes were dispensed at 500 µL/well into a 48-well plate and 100 µL/well into a 96-well plate, and cultured for 72 hours in an incubator. The splenocytes were treated with Concanavalin A (5 µg/mL) when dispensed to induce an immune response, and herein, […] of the pharmaceutical composition including the compound according to each of the Examples was also added thereto. After 72 hours, the supernatant was collected, and the level of remaining NO was checked through a Griess assay, and calculated by the following Equation 4.
(In general: Griess reagent forms a coloured azo dye with nitrite.)

A further assay concerns IFN-γ. Nature of the assay: IFN-γ reduction activity in Concanavalin A-treated splenocytes (quantitative ELISA). It is filed as cell-based, C57BL/6 mouse. Conditions: Mus musculus, Splenocyte, Concanavalin A 5 µg/mL, 72 hours, read-out: IFN-γ Reduction Activity (%) (Mean±SD). As for the experimental part: as §1, §2
NO is one of important inflammatory mediators, and may increase the level of inflammatory cytokine. Concanavalin A (5 µg/mL), which induces an immune response in splenocytes, and the compound of each of Examples were treated in a concentration-dependent manner to check whether the level of IFN-γ, a representative inflammatory cytokine, was reduced. The supernatant was collected 72 hours after the treatment, and analyzed using a quantitative enzyme-linked immunosorbent assay (Quantitative-ELISA).
A general note: ELISA stands for enzyme-linked immunosorbent assay.

Assay [2] in a line: DAF-2 assay of NO scavenging activity without and with H2O2 (ROS). It is filed as biochemical. The note with it: SNAP 100 µM, DAF-2 10 µM, 3 hours, 37°C; for NO Scavenging Activity (%) (Mean±SD) With H2O2: H2O2 1 mM. On the procedure: The pharmaceutical composition sensitive to nitrogen monoxide including the compound according to each of Examples 23 to 28 and 32 may have scavenging activity for reactive oxygen species (ROS). NO scavenging activity of the pharmaceutical composition was evaluated through a DAF-2 assay.
Specifically, to a 100 µM solution of SNAP, the compound synthesized in each of the Examples was added at a concentration of the following Table 2, and reacted. Then 10 µM of DAF-2 was added thereto, followed by a reaction for 3 hours in a 37°C incubator.
Additionally, a stock solution of H2O2 (10 M) was added to the reaction solution so that SNAP and H2O2 had final concentrations of 100 µM and 1 mM, respectively. Then, the compound synthesized in each of the Examples was added thereto at a concentration of the following Table 11, followed by a reaction in the same manner, and NO scavenging activity was calculated by Equation 1.

Assay [3] concerns splenocytes. Nature of the assay: Inhibitory activity on cell proliferation in splenocytes (CCK-8 analysis). It is filed as cell-based, C57BL/6 mouse. The note with it: Mus musculus, Splenocyte, Concanavalin A 5 µg/mL, 72 hours, read-out: Inhibitory Activity on Cell Proliferation (%) (Mean±SD).
In another assay the test system is Raw 264.7 cell line. Nature of the assay: NO scavenging activity in LPS-treated immune cells (Griess reagent). The note with it: Mus musculus, RAW264.7, Raw 264.7, LPS 500 ng/mL, 24 hours, read-out: NO Scavenging Activity (%) (Mean±SD). It is filed as cell-based. On the procedure: Raw 264.7 cell line was seeded in a 48-well plate at a density of 8×10^4 cells/well, and cultured at 37°C in a DMEM medium including 10% FBS, 100 U/mL of penicillin and 100 µg/mL of streptomycin.
The medium was cultured overnight, and then replaced with a fresh medium including 10 µM of the pharmaceutical composition sensitive to nitrogen monoxide including the compound of each of Examples 1 to 30 and 500 ng/mL of LPS, and the fresh medium was cultured again for another 24 hours.
Lastly, in order to measure the amount of NO produced, the amount of NO2^- present in the cell culture medium was measured using a Griess reagent (sulfanilamide, N-1-naphthylethylenediamine dihydrochloride). Specifically, 100 µL of a Griess reagent was mixed with a mixture solution of 50 µL of the cell culture medium and 50 µL of PBS. The mixture solution was reacted for 10 minutes in a well plate, and absorbance thereof at 540 nm was measured.

In a further assay the target is JAK 1 (Homo sapiens, UniProt P23458). Kind of assay: JAK Human TK kinase enzymatic radiometric assay (Eurofins), JAK 1. The note with it: value close to 100 indicates low JAK activity of the compound.
Chain of JAK 1 (P23458 whole entry): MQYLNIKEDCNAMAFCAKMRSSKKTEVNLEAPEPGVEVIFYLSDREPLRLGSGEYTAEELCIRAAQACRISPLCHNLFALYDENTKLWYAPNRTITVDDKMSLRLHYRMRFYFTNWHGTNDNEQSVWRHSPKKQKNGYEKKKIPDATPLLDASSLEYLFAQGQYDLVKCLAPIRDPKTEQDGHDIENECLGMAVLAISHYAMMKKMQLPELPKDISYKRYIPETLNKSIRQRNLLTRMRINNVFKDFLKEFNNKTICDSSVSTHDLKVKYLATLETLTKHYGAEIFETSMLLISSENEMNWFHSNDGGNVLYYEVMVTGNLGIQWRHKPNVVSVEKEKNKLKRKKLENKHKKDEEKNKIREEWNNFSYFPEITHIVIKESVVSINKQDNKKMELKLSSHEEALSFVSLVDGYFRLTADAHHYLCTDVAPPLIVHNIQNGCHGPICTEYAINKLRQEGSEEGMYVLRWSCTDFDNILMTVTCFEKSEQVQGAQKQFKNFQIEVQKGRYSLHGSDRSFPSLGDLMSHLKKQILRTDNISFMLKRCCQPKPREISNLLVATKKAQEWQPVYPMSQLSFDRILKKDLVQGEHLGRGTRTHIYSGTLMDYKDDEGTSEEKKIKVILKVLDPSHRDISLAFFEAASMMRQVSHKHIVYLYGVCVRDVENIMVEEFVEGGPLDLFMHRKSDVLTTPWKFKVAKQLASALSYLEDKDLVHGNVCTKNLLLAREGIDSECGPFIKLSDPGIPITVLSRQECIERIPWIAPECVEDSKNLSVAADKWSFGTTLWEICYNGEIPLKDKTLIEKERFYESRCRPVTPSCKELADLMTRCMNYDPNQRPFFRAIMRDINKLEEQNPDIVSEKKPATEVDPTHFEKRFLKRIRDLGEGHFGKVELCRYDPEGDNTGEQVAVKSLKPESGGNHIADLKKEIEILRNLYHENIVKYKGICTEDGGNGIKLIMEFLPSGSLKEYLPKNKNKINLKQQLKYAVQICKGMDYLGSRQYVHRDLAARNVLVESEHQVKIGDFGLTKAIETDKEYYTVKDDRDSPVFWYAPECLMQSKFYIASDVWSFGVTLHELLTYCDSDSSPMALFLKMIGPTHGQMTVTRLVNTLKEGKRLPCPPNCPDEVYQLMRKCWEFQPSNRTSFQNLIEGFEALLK
Assay [4] in a line: DAF-2 assay of NO scavenging activity (NO donor SNAP). The note with it: DAF-2 10 µM, SNAP 100 µM, PBS, 3 hours, 37°C. It is filed as biochemical. On the procedure: NO scavenging activity of the pharmaceutical composition sensitive to nitrogen monoxide including the compound according to each of Examples 1 to 22, 29 to 31, and 33 to 35 was evaluated through a DAF-2 assay.
Specifically, a reagent stock solution was made using DMSO (dimethyl sulfoxide) in order to prepare 5 mM of DAF-2, 100 mM of SNAP and 5 mM of the compound synthesized in each of the Examples, and for the reaction, the solution was added to a PBS (phosphate buffered saline) solution so that DAF-2, SNAP and the compound had final concentrations of 10 µM, 100 µM and the concentration of Table 1, respectively, followed by a reaction for 3 hours in a 37°C incubator.

Source text for JAK 1: For the compounds of the Examples, JAK activity of each of the compounds was verified using the JAK Human TK Kinase Enzymatic Radiometric Kinase Profiler Assay service provided by Eurofins Scientific.
The activity was verified after inducing a reaction at the JAK 1, 2 and 3 active sites using radioactively labeled ATP.

Regarding `C[C@@H]1CCN(C(=O)CC#N)C[C@@H]1N(C)c1ncnc2c1ccn2C(=O)Nc1cc2c(cc1NC(=O)OCc1ccc(B3OC(C)(C)C(C)(C)O3)cc1)n(C)c(=O)n2C` [Example 28, 4-(4,4,5,5-tetramethyl-1,3,2-dioxaborolan-2-yl)benzyl (6-(4-(((3R,4R)-1-(2-cyanoacetyl)-4-methylpiperidin-3-yl) (methyl)amino)-7H-pyrrolo[2,3-d]pyrimidine-7-carboxamido)-1,3-dimethyl-2-oxo-2,3-dihydro-1H-benzo[d]imidazol-5-yl)carbamate], the activity at 10 µM was determined as 92 ± 0.56% in the assay with splenocytes [1], 100% with IFN-γ and 49.8 ± 0.43% with Raw 264.7 cell line. In addition, the “NO Scavenging Activity (%) (Mean±SD) Without H2O2” value was 3.73± 0.57% in assay [2] (compound 1 µM), 13.25 ±0.69% in assay [2] (compound 5 µM) and 14.18 ±0.62% in assay [2] (compound 10 µM). Moreover, the “NO Scavenging Activity (%) (Mean±SD) With H2O2” value in assay [2] (compound 1 µM) worked out at 76.23 ±0.94%; in assay [2] (compound 5 µM), 98.01 ±0.04%; in assay [2] (compound 10 µM), 98.34 ±0.05%. Moreover, in the assay with splenocytes [3], the inhibition at 10 µM worked out at 80.7 ± 7.12%.

Take `C[C@@H]1CCN(C(=O)CC#N)C[C@@H]1N(C)c1ncnc2c1ccn2C(=O)Nc1cc2c(cc1N)n(C)c(=O)n2C` [Example 10, N-(6-amino-1,3-dimethyl-2-oxo-2,3-dihydro-1H-benzo[d]imidazol-5-yl)-4-(((3R,4R)-1-(2-cyanoacetyl)-4-methylpiperidin-3-yl)(methyl)amino)-7H-pyrrolo[2,3-d]pyrimidine-7-carboxamide]: the activity at 10 µM in the assay with splenocytes [1] amounted to 77 ± 0.87%; with IFN-γ, 93 ± 2.99%; with Raw 264.7 cell line it was 93.7 ± 0.11%. Besides, the inhibition at 10 µM in the assay on splenocytes [3] turned out to be 76.3 ± 2.45%.

Turning to `C[C@@H]1CCN(C(=O)CC#N)C[C@@H]1N(C)c1ncnc2c1ccn2C(=O)Nc1cc(N(C)C)ccc1N` [Example 5, N-(2-amino-5-(dimethylamino)phenyl)-4-(((3R,4R)-1-(2-cyanoacetyl)-4-methylpiperidin-3-yl)(methyl)amino)-7H-pyrrolo[2,3-d]pyrimidine-7-carboxamide], the activity at 10 µM in the assay with splenocytes [1] was 94.1 ± 0.52%; in the assay with IFN-γ it was 96.1 ± 0.45%; in the assay on Raw 264.7 cell line, 84.1 ± 0.01%. Further, in the assay with splenocytes [3], the inhibition at 10 µM is 60.5 ± 5.48%.

With `Cc1ccc(NC(=O)N(C)CCN(C)C(=O)n2ccc3c(N(C)[C@H]4CN(C(=O)CC#N)CC[C@H]4C)ncnc32)c(N)c1` [Example 15, N-(2-(3-(2-amino-4-methylphenyl)-1-methylureido)ethyl)-4-(((3R,4R)-1-(2-cyanoacetyl)-4-methylpiperidin-3-yl) (methyl)amino)-N-methyl-7H-pyrrolo[2,3-d]pyrimidine-7-carboxamide], the “JAK 1 Activity” value on JAK 1 (0.1 nM) stood at 102; on JAK 1 (1 nM) it was 90; on JAK 1 (10 nM), 99; on JAK 1 (100 nM), 66. In addition, the activity at 10 µM in the assay on splenocytes [1] was 31.6 ± 0.16%; in the assay with IFN-γ it was 86.5 ± 0.29%; in the assay on Raw 264.7 cell line, 54 ± 0.59%. The inhibition at 10 µM in the assay on splenocytes [3] was 22.6 ± 6.36%.

Regarding `Cc1ccc(N)c(NC(=O)N(C)CCN(C)C(=O)n2ccc3c(N(C)[C@H]4CN(C(=O)CC#N)CC[C@H]4C)ncnc32)c1` [Example 16, N-(2-(3-(2-amino-5-methylphenyl)-1-methylureido)ethyl)-4-(((3R,4R)-1-(2-cyanoacetyl)-4-methylpiperidin-3-yl) (methyl)amino)-N-methyl-7H-pyrrolo[2,3-d]pyrimidine-7-carboxamide], the “JAK 1 Activity” value on JAK 1 (0.1 nM) worked out at 101; at JAK 1 (1 nM), 104; at JAK 1 (10 nM), 98; on JAK 1 (100 nM) it was 59. Besides, the values for the activity at 10 µM in the assay with splenocytes [1], with IFN-γ and in the assay with Raw 264.7 cell line were 27.1 ± 1.2%, 81.4 ± 0.5% and 49.3 ± 0.23%, respectively. The inhibition at 10 µM in the assay on splenocytes [3] turned out to be 25 ± 5.67%.

On to `Cc1ccc(N)c(NC(=O)n2ccc3c(N(C)[C@H]4CN(C(=O)CC#N)CC[C@H]4C)ncnc32)c1` [Example 2, N-(2-amino-5-methylphenyl)-4-(((3R,4R)-1-(2-cyanoacetyl)-4-methylpiperidin-3-yl)(methyl)amino)-7H-pyrrolo[2,3-d]pyrimidine-7-carboxamide], for which the activity at 10 µM in the assay on splenocytes [1] turned out to be 94.3 ± 0.27%; in the assay with IFN-γ, 95.2 ± 0.39%; with Raw 264.7 cell line, 78.1 ± 0.21%. In the assay with splenocytes [3], the inhibition at 10 µM turned out to be 90.4 ± 4.69%.

For the molecule `C[C@@H]1CCN(C(=O)CC#N)C[C@@H]1N(C)c1ncnc2c1ccn2C(=O)N(C)CCN(C)C(=O)Nc1cc2c(cc1N)n(C)c(=O)n2C` [Example 22, N-(2-(3-(6-amino-1,3-dimethyl-2-oxo-2,3-dihydro-1H-benzo[d]imidazol-5-yl)-1-methylureido)ethyl)-4-(((3R,4R)-1-(2-cyanoacetyl)-4-methylpiperidin-3-yl) (methyl)amino)-N-methyl-7H-pyrrolo[2,3-d]pyrimidine-7-carboxamide], the “JAK 1 Activity” value at JAK 1 (0.1 nM) stood at 91; on JAK 1 (1 nM), 97; at JAK 1 (10 nM), 84; at JAK 1 (100 nM) it was 77. In addition, the activity at 10 µM with splenocytes [1] was 45.9 ± 0.51%; in the assay on Raw 264.7 cell line, 31.3 ± 0.88%. Further, the “NO Scavenging Activity (%) (Mean±SD)” value is 14.83 ±6.51% in assay [4] (compound 1 µM), 36.86 ±2.09% in assay [4] (compound 5 µM) and 48.96 ±3.12% in assay [4] (compound 10 µM). In the assay with splenocytes [3], the inhibition at 10 µM was 19.4 ± 0.21%.

For `Cc1ccc(NC(=O)n2ccc3c(N(C)[C@H]4CN(C(=O)CC#N)CC[C@H]4C)ncnc32)c(N)c1` [Example 3, N-(2-amino-4-methylphenyl)-4-(((3R,4R)-1-(2-cyanoacetyl)-4-methylpiperidin-3-yl)(methyl)amino)-7H-pyrrolo[2,3-d]pyrimidine-7-carboxamide], the activity at 10 µM is 98.1 ± 0.34% in the assay on splenocytes [1], 99.1 ± 0.61% in the assay on IFN-γ and 95.4 ± 0.11% with Raw 264.7 cell line. In the assay with splenocytes [3], the inhibition at 10 µM turned out to be 76.2 ± 2.45%.

The values above are taken from patent publication EP4741395A1, “NOVEL COMPOUND SENSITIVE TO NITROGEN MONOXIDE AND PHARMACEUTICAL COMPOSITION COMPRISING SAME” (Omniamed Co. Ltd, priority 2023, dated 2025).
